Where two headings read alike, the source gives them in different places.
Experiment: TD-6450 phase I clinical study (SAD/MAD): pharmacokinetics
Assay type: in vivo, human
Details: male, human
Experimental: Primary and secondary outcomes were pre-defined as follows: Safety and tolerability as a primary outcome, pharmacokinetics as a secondary outcome. Safety and tolerability were evaluated using standard measures, including adverse event (AE) monitoring, clinical laboratory tests (hematology, serum chemistry, coagulation, and urinalysis), vital signs, physical examinations, and 12-lead electrocardiograms (ECGs). […]
This study was conducted in two parts, Part A (SAD) and Part B (MAD). For the Part A, the age of enrolled subjects ranged from 20 to 60 years, with a mean age range of 32.1 to 46.2 years. Most subjects were male (73 total subjects) and most were white (55 subjects) or black (22 subjects). For Part B of the study, ages ranged from 23 to 60 years with a similar mean age across treatment groups. Most subjects were male (25 total subjects) and all were either white (18 subjects) or black (12 subjects). For each part of the study, the mean body mass index (BMI) and creatinine clearance were similar across treatment groups. […] Part A: Healthy subjects were sequentially enrolled and randomly assigned to each dose cohort (up to 10 dose-ascending cohorts were planned, including a fed arm in the food effect cohort) to receive either a single dose of TD-6450 or placebo. For each dose cohort, 8 subjects were randomized in a 3:1 ratio (6 subjects received TD-6450 and 2 subjects received placebo). The starting dose of TD-6450 was 0.5 mg with a planned maximum dose of 1000 mg. Upon review of the 500-mg cohort PK data, the decision was made to not escalate to the 1000-mg cohort because of exposure saturation at ≥ 500 mg. The following doses were administered: 0.5 mg, 1.5 mg, 5 mg, 15 mg, 30 mg, 60 mg, 120 mg, 240 mg, and 500 mg. Part B: Healthy subjects were sequentially enrolled in 3 ascending dose cohorts (TD-6450 60 mg, 120 mg, and 240 mg) and randomly assigned to receive either TD-6450 or placebo as once daily doses for 14 days. For each dose cohort, 10 subjects were randomized in a 4:1 ratio (8 subjects received TD-6450 and 2 subjects received placebo). Blinded safety, tolerability, and available PK data after each dose cohort were reviewed by the Safety Data Review Committee (SDRC) before escalation to the next dosing cohort for both part A and B. Subjects of the clinical study were randomly assigned to each cohort. Randomizations codes were assigned to the subjects. All study subjects, study investigators, and the sponsor’s staff involved in the conduct of the study were blinded to treatment assignment. The only personnel who had access to the randomization code before database lock were: The pharmacist or pharmacy staff member who prepared drug or placebo capsules for administration to the subject according to the randomization code and the bioanalytical contract laboratory that analyzed the PK samples (plasma and urine).

## CNC(=O)N1C[C@@H](C)N(c2ccc(C(=O)Nc3ccc(-c4ccc(-c5c[nH]c([C@@H]6CCCN6C(=O)[C@@H](NC(=O)OC)C(C)C)n5)cc4)c(OC(F)(F)F)c3)cn2)C[C@@H]1C [TD-6450]
In vivo, 120 h
  TD-6450 concentration: 29.30 ng/mL
In vivo, TD-6450 concentration
  concentration at 15 min: 0 ng/mL
  concentration at 2 h: 116 ng/mL
  concentration at 3 h: 156 ng/mL
  concentration at 4 h: 159 ng/mL
  concentration at 6 h: 165 ng/mL
  concentration at 12 h: 108 ng/mL
  concentration at 24 h: 85.6 ng/mL
  concentration at 48 h: 60 ng/mL
  concentration at 72 h: 42.6 ng/mL
  concentration at 96 h: 27.1 ng/mL
  concentration at 120 h: 19.3 ng/mL
  concentration at 144 h: 15.1 ng/mL
  concentration at 168 h: 12.2 ng/mL
  concentration at 312 h: 2.12 ng/mL
plasma, oral, 0.5 mg, Male subjects, SAD arm NCT02022306, Dose 0.50, 1 Hour, read-out: Concentration
  concentration at 1 h: 0 ng/mL
plasma, oral, 0.5 mg, Male subjects, SAD arm NCT02022306, Dose 0.50, 2 Hours, read-out: Concentration
  concentration at 2 h: 0 ng/mL
plasma, oral, 0.5 mg, Male subjects, SAD arm NCT02022306, Dose 0.50, 3 Hours, read-out: Concentration
  concentration at 3 h: 0 ng/mL
plasma, oral, 0.5 mg, Male subjects, SAD arm NCT02022306, Dose 0.50, 15 Minutes, read-out: Concentration
  concentration at 15 min: 0 ng/mL
plasma, oral, 0.5 mg, Male subjects, SAD arm NCT02022306, Dose 0.50, 24 Hours, read-out: Concentration
  concentration at 24 h: 0 ng/mL
plasma, oral, 0.5 mg, Male subjects, SAD arm NCT02022306, Dose 0.50, 30 Minutes, read-out: Concentration
  concentration at 30 min: 0 ng/mL
plasma, oral, 0.5 mg, Male subjects, SAD arm NCT02022306, Dose 0.50, 72 Hours, read-out: Concentration
  concentration at 72 h: 0 ng/mL
plasma, oral, 0.5 mg, Male subjects, SAD arm NCT02022306, Dose 0.50, 96 Hours, read-out: Concentration
  concentration at 96 h: 0 ng/mL
plasma, oral, 0.5 mg, Male subjects, SAD arm NCT02022306, Dose 0.50, 120 Hours, read-out: Concentration
  concentration at 120 h: 0 ng/mL
plasma, oral, 0.5 mg, Male subjects, SAD arm NCT02022306, Dose 0.50, 144 Hours, read-out: Concentration
  concentration at 144 h: 0 ng/mL
plasma, oral, 0.5 mg, Male subjects, SAD arm NCT02022306, Dose 0.50, 168 Hours, read-out: Concentration
  concentration at 168 h: 0 ng/mL
plasma, oral, 1.5 mg, Male subjects, SAD arm NCT02022306, Dose 1.50, 15 Minutes, read-out: Concentration
  concentration at 15 min: 0 ng/mL
plasma, oral, 1.5 mg, Male subjects, SAD arm NCT02022306, Dose 1.50, 30 Minutes, read-out: Concentration
  concentration at 30 min: 0 ng/mL
plasma, oral, 5 mg, Male subjects, SAD arm NCT02022306, Dose 5.00, 15 Minutes, read-out: Concentration
  concentration at 15 min: 0 ng/mL
plasma, oral, 15 mg, Male subjects, SAD arm NCT02022306, Dose 15.00, 15 Minutes, read-out: Concentration
  concentration at 15 min: 0 ng/mL
plasma, oral, 30 mg, Male subjects, SAD arm NCT02022306, Dose 30.00, 1 Hour, read-out: Concentration (ng/ml)
  concentration at 1 h: 0.68 ng/mL
plasma, oral, 30 mg, Male subjects, SAD arm NCT02022306, Dose 30.00, 2 Hours, read-out: Concentration
  concentration at 2 h: 9.36 ng/mL
plasma, oral, 30 mg, Male subjects, SAD arm NCT02022306, Dose 30.00, 3 Hours, read-out: Concentration
  concentration at 3 h: 15.6 ng/mL
plasma, oral, 30 mg, Male subjects, SAD arm NCT02022306, Dose 30.00, 3 Hours, read-out: Concentration (ng/ml)
  concentration at 3 h: 20.9 ng/mL
plasma, oral, 30 mg, Male subjects, SAD arm NCT02022306, Dose 30.00, 4 Hours, read-out: Concentration
  concentration at 4 h: 18.8 ng/mL
plasma, oral, 30 mg, Male subjects, SAD arm NCT02022306, Dose 30.00, 4 Hours, read-out: Concentration (ng/ml)
  concentration at 4 h: 17.9 ng/mL
plasma, oral, 30 mg, Male subjects, SAD arm NCT02022306, Dose 30.00, 6 Hours, read-out: Concentration
  concentration at 6 h: 22.6 ng/mL
plasma, oral, 30 mg, Male subjects, SAD arm NCT02022306, Dose 30.00, 8 Hours, read-out: Concentration
  concentration at 8 h: 26.3 ng/mL
plasma, oral, 30 mg, Male subjects, SAD arm NCT02022306, Dose 30.00, 12 Hours, read-out: Concentration
  concentration at 12 h: 18.7 ng/mL
plasma, oral, 30 mg, Male subjects, SAD arm NCT02022306, Dose 30.00, 15 Minutes, read-out: Concentration
  concentration at 15 min: 0 ng/mL
plasma, oral, 30 mg, Male subjects, SAD arm NCT02022306, Dose 30.00, 15 Minutes, read-out: Concentration (ng/ml)
  concentration at 15 min: 0 ng/mL
plasma, oral, 30 mg, Male subjects, SAD arm NCT02022306, Dose 30.00, 24 Hours, read-out: Concentration
  concentration at 24 h: 14.3 ng/mL
plasma, oral, 30 mg, Male subjects, SAD arm NCT02022306, Dose 30.00, 30 Minutes, read-out: Concentration (ng/ml)
  concentration at 30 min: 0 ng/mL
plasma, oral, 30 mg, Male subjects, SAD arm NCT02022306, Dose 30.00, 48 Hours, read-out: Concentration
  concentration at 48 h: 9.12 ng/mL
plasma, oral, 30 mg, Male subjects, SAD arm NCT02022306, Dose 30.00, 72 Hours, read-out: Concentration
  concentration at 72 h: 6.82 ng/mL
plasma, oral, 30 mg, Male subjects, SAD arm NCT02022306, Dose 30.00, 72 Hours, read-out: Concentration (ng/ml)
  concentration at 72 h: 5.73 ng/mL
plasma, oral, 30 mg, Male subjects, SAD arm NCT02022306, Dose 30.00, 96 Hours, read-out: Concentration
  concentration at 96 h: 5.25 ng/mL
plasma, oral, 30 mg, Male subjects, SAD arm NCT02022306, Dose 30.00, 96 Hours, read-out: Concentration (ng/ml)
  concentration at 96 h: 4.83 ng/mL
plasma, oral, 30 mg, Male subjects, SAD arm NCT02022306, Dose 30.00, 120 Hours, read-out: Concentration
  concentration at 120 h: 4.26 ng/mL
plasma, oral, 30 mg, Male subjects, SAD arm NCT02022306, Dose 30.00, 120 Hours, read-out: Concentration (ng/ml)
  concentration at 120 h: 3.52 ng/mL
plasma, oral, 30 mg, Male subjects, SAD arm NCT02022306, Dose 30.00, 144 Hours, read-out: Concentration
  concentration at 144 h: 3.26 ng/mL
plasma, oral, 30 mg, Male subjects, SAD arm NCT02022306, Dose 30.00, 144 Hours, read-out: Concentration (ng/ml)
  concentration at 144 h: 3.18 ng/mL
plasma, oral, 30 mg, Male subjects, SAD arm NCT02022306, Dose 30.00, 168 Hours, read-out: Concentration
  concentration at 168 h: 2.33 ng/mL
plasma, oral, 30 mg, Male subjects, SAD arm NCT02022306, Dose 30.00, 168 Hours, read-out: Concentration (ng/ml)
  concentration at 168 h: 2.29 ng/mL
plasma, oral, 60 mg, Male subjects, SAD arm NCT02022306, Dose 60.00, 8 Hours, read-out: Concentration (ng/ml)
  concentration at 8 h: 110 ng/mL
plasma, oral, 60 mg, Male subjects, SAD arm NCT02022306, Dose 60.00, 15 Minutes, read-out: Concentration (ng/ml)
  concentration at 15 min: 0 ng/mL
plasma, oral, 120 mg, Male subjects, SAD arm NCT02022306, Dose 120.00, 15 Minutes, read-out: Concentration (ng/ml)
  concentration at 15 min: 0 ng/mL
plasma, oral, 240 mg, Male subjects, SAD arm NCT02022306, Dose 240.00, 15 Minutes, read-out: Concentration (ng/ml)
  concentration at 15 min: 0 ng/mL
plasma, oral, 500 mg, Male subjects, SAD arm NCT02022306, Dose 500.00, 15 Minutes, read-out: Concentration (ng/ml)
  concentration at 15 min: 0 ng/mL
plasma, oral, 500 mg, Male subjects, SAD arm NCT02022306, Dose 500.00, 30 Minutes, read-out: Concentration (ng/ml)
  concentration at 30 min: 2.85 ng/mL
